The record followed here is patent US20230057984A1, “NORMALIZATION OF CULTURE OF CORNEAL ENDOTHELIAL CELLS” (KYOTO PREFECTURAL PUBLIC UNIVERSITY CORPORATION, priority 2011, published 2023).

This assay relates to Cynomolgus monkey corneal endothelial cells. The assay is described as follows: Western blot of Na+/K+-ATPase and ZO-1 in monkey corneal endothelial cells (Example 3). The assay is classed as cell-based. Conditions: monkey CEC treated with SB431542 vs fibroblast phenotype control. The protocol:
Next, reaction was allowed for 1 hour at a room temperature with ALEXA FLUOR 488 (INVITROGEN (catalog number: A21206)) and ALEXA FLUOR 594 (INVITROGEN (catalog number: A21203)), diluted with TBS-T by 1,000 fold. After washing with PBS, the sample was encapsulated with VECTASHIELD WITH DAPI (VECTOR LABORATORIES (catalog number: 94010)) onto a slide, followed by observation through confocal microscope (Leica). • Western blot technique: protein extracted by RIPA buffer was electrophoresed with 7.5% polyacrylamide. The separated protein was transferred to a PVDF film (PALL LIFE SCIENCE (catalog number: EH-2222)). […] After washing, bands were detected using an ECL-ADVAVCE Western Blotting Detection Kit (GE healthcare Japan (catalog number: RPN2135V)). […]
P-40 (Nacalai Tesque, catalog number: 23640-94), 0.5% sodium deoxycholate (Nacalai Tesque, catalog number:10712-12), and 0.1% SDS (Nacalai Tesque, catalog number:31607-65)). Thus obtained cell lysate was centrifuged (15,000 rpm, 10 minutes), the supernatant thereof was collected, and the protein was quantitated using a BCA PROTEIN ASSAY KIT (PIERCE, catalog number: 23227). […]

In the case of `NC(=O)c1ccc(-c2nc(-c3ccc4c(c3)OCO4)c(-c3ccccn3)[nH]2)cc1` [SB431542], the “expression of Na+/K+-ATPase and ZO-1, protein level (Western blot)” value is “strongly enhanced”.
